Tests used:
Assay type in all cases: in vivo
Conditions in all cases: treatment dosage 320 g/ha
chickweed [1] = assay: Test Example 3: weedkilling efficacy through soil treatment; N: chickweed
How it was run: (§1)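 Crop and weed responses were judged three weeks after a uniform surface spray of the water-diluted emulsion at the given g/ha rate. Seeds sat beneath about 1.5 cm of sterilized diluvial soil, and boxes stood in a greenhouse at 25 to 30° C.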

Indian mallow [2] = assay: Test Example 4: weedkilling efficacy by foliar treatment; K: Indian mallow
How it was run: (§2)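 Seeds are spot-sown into sterilized diluvial soil and covered with about 1.5 cm of soil. After 14 days' greenhouse growth at 25 to 30° C, plants are sprayed on stems and leaves with diluted emulsion at the stated g/ha rate, then scored at 3 weeks.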

wild oat [3] = assay: Test Example 3: weedkilling efficacy through soil treatment; G: wild oat
How it was run: as §1

oval-leafed pondweed [4] = assay: Test Example 2: weedkilling efficacy, growth period weed treatment in the submerged state; C: oval-leafed pondweed
How it was run: (§3)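 First, alluvial soil in pots is flooded to 4 cm and mixed seed is sown. Next, plants grow in a greenhouse at 25 to 30° C until the 1-2 leaf stage. Then diluted emulsion is applied onto the water surface at the given g/ha rate, and injury is assessed after 3 weeks.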

Italian ryegrass [5] = assay: Test Example 4: weedkilling efficacy by foliar treatment; I: Italian ryegrass
How it was run: as §2

barnyard grass [6] = assay: Test Example 2: weedkilling efficacy, growth period weed treatment in the submerged state; A: barnyard grass
How it was run: as §3

crabgrass [7] = assay: Test Example 4: weedkilling efficacy by foliar treatment; D: crabgrass
How it was run: as §2

directly sown rice [8] = assay: Test Example 4: foliar treatment, effect on crop; b: directly sown rice
How it was run: as §2

black-grass [9] = assay: Test Example 3: weedkilling efficacy through soil treatment; H: black-grass
How it was run: as §1

rapeseed [10] = assay: Test Example 4: foliar treatment, effect on crop; g: rapeseed
How it was run: as §2

crabgrass [11] = assay: Test Example 3: weedkilling efficacy through soil treatment; D: crabgrass
How it was run: as §1

green foxtail [12] = assay: Test Example 4: weedkilling efficacy by foliar treatment; E: green foxtail
How it was run: as §2

oval-leafed pondweed [13] = assay: Test Example 1: weedkilling efficacy, preemergent weed treatment in the submerged state; C: oval-leafed pondweed
How it was run: (§4)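 Emulsion diluted with water to the specified per-hectare dosage is applied onto flood water (4 cm) over alluvial soil on the sowing day, with barnyard grass, bulrush and pondweed seeded and rice (2.5-leaf) transplanted; plants grow at 25–30 °C and are rated at 3 weeks.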

Italian ryegrass [14] = assay: Test Example 3: weedkilling efficacy through soil treatment; I: Italian ryegrass
How it was run: as §1

wheat [15] = assay: Test Example 3: soil treatment, effect on crop; e: wheat
How it was run: as §1

catchweed [16] = assay: Test Example 3: weedkilling efficacy through soil treatment; O: catchweed
How it was run: as §1

wild oat [17] = assay: Test Example 4: weedkilling efficacy by foliar treatment; G: wild oat
How it was run: as §2

barnyard grass [18] = assay: Test Example 1: weedkilling efficacy, preemergent weed treatment in the submerged state; A: barnyard grass
How it was run: as §4

soybean [19] = assay: Test Example 4: foliar treatment, effect on crop; d: soybean
How it was run: as §2

corn [20] = assay: Test Example 4: foliar treatment, effect on crop; c: corn
How it was run: as §2

birds-eye speedwell = assay: Test Example 3: weedkilling efficacy through soil treatment; p: birds-eye speedwell
How it was run: as §1

barnyard grass [21] = assay: Test Example 4: weedkilling efficacy by foliar treatment; F: barnyard grass
How it was run: as §2

beet [22] = assay: Test Example 4: foliar treatment, effect on crop; f: beet
How it was run: as §2

corn [23] = assay: Test Example 3: soil treatment, effect on crop; c: corn
How it was run: as §1

wheat [24] = assay: Test Example 4: foliar treatment, effect on crop; e: wheat
How it was run: as §2

fig-leafed goosefoot [25] = assay: Test Example 3: weedkilling efficacy through soil treatment; M: fig-leafed goosefoot
How it was run: as §1

rapeseed [26] = assay: Test Example 3: soil treatment, effect on crop; g: rapeseed
How it was run: as §1

bulrush [27] = assay: Test Example 1: weedkilling efficacy, preemergent weed treatment in the submerged state; B: bulrush
How it was run: as §4

Indian mallow [28] = assay: Test Example 3: weedkilling efficacy through soil treatment; K: Indian mallow
How it was run: as §1

redroot pigweed [29] = assay: Test Example 4: weedkilling efficacy by foliar treatment; L: redroot pigweed
How it was run: as §2

common wind-grass [30] = assay: Test Example 3: weedkilling efficacy through soil treatment; J: common wind-grass
How it was run: as §1

beet [31] = assay: Test Example 3: soil treatment, effect on crop; f: beet
How it was run: as §1

common wind-grass [32] = assay: Test Example 4: weedkilling efficacy by foliar treatment; J: common wind-grass
How it was run: as §2

black-grass [33] = assay: Test Example 4: weedkilling efficacy by foliar treatment; H: black-grass
How it was run: as §2

catchweed [34] = assay: Test Example 4: weedkilling efficacy by foliar treatment; O: catchweed
How it was run: as §2

directly sown rice [35] = assay: Test Example 3: soil treatment, effect on crop; b: directly sown rice
How it was run: as §1

chickweed [36] = assay: Test Example 4: weedkilling efficacy by foliar treatment; N: chickweed
How it was run: as §2

bulrush [37] = assay: Test Example 2: weedkilling efficacy, growth period weed treatment in the submerged state; B: bulrush
How it was run: as §3

green foxtail [38] = assay: Test Example 3: weedkilling efficacy through soil treatment; E: green foxtail
How it was run: as §1

fig-leafed goosefoot [39] = assay: Test Example 4: weedkilling efficacy by foliar treatment; M: fig-leafed goosefoot
How it was run: as §2

redroot pigweed [40] = assay: Test Example 3: weedkilling efficacy through soil treatment; L: redroot pigweed
How it was run: as §1

soybean [41] = assay: Test Example 3: soil treatment, effect on crop; d: soybean
How it was run: as §1

transplanted rice = assay: Test Example 1: preemergent weed treatment in the submerged state, effect on crop; a: transplanted rice
How it was run: as §4

barnyard grass [42] = assay: Test Example 3: weedkilling efficacy through soil treatment; F: barnyard grass
How it was run: as §1

CC1=C(c2cccnc2F)C(=O)N(C(C)(C)C(=O)Nc2cc(Cl)cc(Br)n2)CO1 [B-2-12]
N (chickweed) weedkilling efficacy grade (chickweed [1]): 4 (weed kill ratio 70% or more, less than 90%) | K (Indian mallow) weedkilling efficacy grade (Indian mallow [2]): 5 (weed kill ratio 90% or more, (practically complete withering)) | G (wild oat) weedkilling efficacy grade (wild oat [3]): 1 (weed kill ratio 5% or more, less than 20%) | C (oval-leafed pondweed) weedkilling efficacy grade (oval-leafed pondweed [4]): 5 (weed kill ratio 90% or more, (practically complete withering)) | I (Italian ryegrass) weedkilling efficacy grade (Italian ryegrass [5]): 5 (weed kill ratio 90% or more, (practically complete withering)) | A (barnyard grass) weedkilling efficacy grade (barnyard grass [6]): 5 (weed kill ratio 90% or more, (practically complete withering)) | D (crabgrass) weedkilling efficacy grade (crabgrass [7]): 5 (weed kill ratio 90% or more, (practically complete withering)) | b (directly sown rice) effect on crop grade (directly sown rice [8]): 5 (weed kill ratio 90% or more, (practically complete withering)) | H (black-grass) weedkilling efficacy grade (black-grass [9]): 5 (weed kill ratio 90% or more, (practically complete withering)) | g (rapeseed) effect on crop grade (rapeseed [10]): 4 (weed kill ratio 70% or more, less than 90%) | D (crabgrass) weedkilling efficacy grade (crabgrass [11]): 5 (weed kill ratio 90% or more, (practically complete withering)) | E (green foxtail) weedkilling efficacy grade (green foxtail [12]): 5 (weed kill ratio 90% or more, (practically complete withering)) | C (oval-leafed pondweed) weedkilling efficacy grade (oval-leafed pondweed [13]): 5 (weed kill ratio 90% or more, (practically complete withering)) | I (Italian ryegrass) weedkilling efficacy grade (Italian ryegrass [14]): 5 (weed kill ratio 90% or more, (practically complete withering)) | e (wheat) effect on crop grade (wheat [15]): 0 (weed kill ratio 5% or less (practically no effect)) | O (catchweed) weedkilling efficacy grade (catchweed [16]): 2 (weed kill ratio 20% or more, less than 40%) | G (wild oat) weedkilling efficacy grade (wild oat [17]): 4 (weed kill ratio 70% or more, less than 90%) | A (barnyard grass) weedkilling efficacy grade (barnyard grass [18]): 5 (weed kill ratio 90% or more, (practically complete withering)) | d (soybean) effect on crop grade (soybean [19]): 4 (weed kill ratio 70% or more, less than 90%) | c (corn) effect on crop grade (corn [20]): 4 (weed kill ratio 70% or more, less than 90%) | P (birds-eye speedwell) weedkilling efficacy grade (birds-eye speedwell): 4 (weed kill ratio 70% or more, less than 90%) | F (barnyard grass) weedkilling efficacy grade (barnyard grass [21]): 5 (weed kill ratio 90% or more, (practically complete withering)) | f (beet) effect on crop grade (beet [22]): 4 (weed kill ratio 70% or more, less than 90%) | c (corn) effect on crop grade (corn [23]): 0 (weed kill ratio 5% or less (practically no effect)) | e (wheat) effect on crop grade (wheat [24]): 0 (weed kill ratio 5% or less (practically no effect)) | M (fig-leafed goosefoot) weedkilling efficacy grade (fig-leafed goosefoot [25]): 3 (weed kill ratio 40% or more, less than 70%) | g (rapeseed) effect on crop grade (rapeseed [26]): 0 (weed kill ratio 5% or less (practically no effect)) | B (bulrush) weedkilling efficacy grade (bulrush [27]): 5 (weed kill ratio 90% or more, (practically complete withering)) | K (Indian mallow) weedkilling efficacy grade (Indian mallow [28]): 0 (weed kill ratio 5% or less (practically no effect)) | L (redroot pigweed) weedkilling efficacy grade (redroot pigweed [29]): 4 (weed kill ratio 70% or more, less than 90%) | J (common wind-grass) weedkilling efficacy grade (common wind-grass [30]): 5 (weed kill ratio 90% or more, (practically complete withering)) | f (beet) effect on crop grade (beet [31]): 0 (weed kill ratio 5% or less (practically no effect)) | J (common wind-grass) weedkilling efficacy grade (common wind-grass [32]): 5 (weed kill ratio 90% or more, (practically complete withering)) | H (black-grass) weedkilling efficacy grade (black-grass [33]): 5 (weed kill ratio 90% or more, (practically complete withering)) | O (catchweed) weedkilling efficacy grade (catchweed [34]): 4 (weed kill ratio 70% or more, less than 90%) | b (directly sown rice) effect on crop grade (directly sown rice [35]): 3 (weed kill ratio 40% or more, less than 70%) | N (chickweed) weedkilling efficacy grade (chickweed [36]): 4 (weed kill ratio 70% or more, less than 90%) | B (bulrush) weedkilling efficacy grade (bulrush [37]): 5 (weed kill ratio 90% or more, (practically complete withering)) | E (green foxtail) weedkilling efficacy grade (green foxtail [38]): 5 (weed kill ratio 90% or more, (practically complete withering)) | M (fig-leafed goosefoot) weedkilling efficacy grade (fig-leafed goosefoot [39]): 4 (weed kill ratio 70% or more, less than 90%) | L (redroot pigweed) weedkilling efficacy grade (redroot pigweed [40]): 0 (weed kill ratio 5% or less (practically no effect)) | d (soybean) effect on crop grade (soybean [41]): 0 (weed kill ratio 5% or less (practically no effect)) | a (transplanted rice) effect on crop grade (transplanted rice): 5 (weed kill ratio 90% or more, (practically complete withering)) | F (barnyard grass) weedkilling efficacy grade (barnyard grass [42]): 5 (weed kill ratio 90% or more, (practically complete withering))
